Reference: patent US20250228239A1, “MOLECULES HAVING PESTICIDAL UTILITY, AND INTERMEDIATES, COMPOSITIONS, AND PROCESSES, RELATED THERETO” (priority 2024, published 2025)

Tests used:
Assay type in all cases: in vivo
[1] = tested on: Yellow Fever Mosquito (Aedes aegypti, AEDSAE); conditions: Yellow Fever Mosquito, Table ABC / ABC-DP rating
Procedure, shortened: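 Compounds from 4000 ppm DMSO stocks were diluted in 90:10 water/acetone and dispensed into wells, then infested with about 1-day-old larvae in liver-powder water. Covered plates were held at room temperature for 3 days and each well was scored for mortality against a rating scale; six replicate plates per compound.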

[2] = tested on: Beet Armyworm (Spodoptera exigua, LAPHEG); assay: Bioassays on Beet Armyworm (BAW), 128-well diet tray assay; conditions: Spodoptera exigua; Beet Armyworm, Table ABC / ABC-DP rating; read-out: BAW rating
Procedure, shortened: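 Diet-overlay assay: 50 μg/cm^2 compound applied in 90:10 acetone-water to artificial diet, allowed to dry, then infested with 1–5 L2 larvae/well; 8 wells/compound; covered, vented; 25° C., 14:10 L:D, 5–7 d; % mortality per well, averaged.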

[3] = tested on: Cabbage Looper (Trichoplusia ni, TRIPNI); assay: Bioassays on Cabbage Looper (CL), 128-well diet tray assay; conditions: Trichoplusia ni; Cabbage Looper, Table ABC / ABC-DP rating; read-out: CL rating
Procedure, shortened: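 Each of eight wells receives artificial diet treated at 50 μg/cm^2 with the test molecule, then one to five second-instar larvae. Incubation runs five to seven days at 25° C with a 14:10 light-dark cycle under vented covers. Mortality is scored per well as a percentage and averaged.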

Row | Compound | YFM rating [1] | pest or weed control at 50 µg/cm2 [2] [%] | pest or weed control at 50 µg/cm2 [3] [%]
1 | CN(NC(=O)c1cc(NC(=O)[C@H]2[C@H](c3cc(Cl)cc(Cl)c3)C2(Cl)Cl)ccc1Cl)C(=O)OC(C)(C)C (relative stereo) [F2520, trans-tert-Butyl 2-(2-chloro-5-(2,2-dichloro-3-(3,5-dichlorophenyl)cyclopropane-1-carboxamido)benzoyl)-1-methylhydrazine-1-carboxylate] | A (80–100) | 50 to 100 | 50 to 100
2 | CNNC(=O)c1cc(NC(=O)[C@H]2[C@H](c3cc(Cl)cc(Cl)c3)C2(Cl)Cl)ccc1Cl.Cl (relative stereo) [F2521, trans-2,2-Dichloro-N-(4-chloro-3-(2-methylhydrazine-1-carbonyl)phenyl)-3-(3,5-dichlorophenyl)cyclopropane-1-carboxamide hydrochloride] | A (80–100) | 50 to 100 | 50 to 100
3 | CC(=O)N(C)NC(=O)c1cc(NC(=O)[C@H]2[C@H](c3cc(Cl)cc(Cl)c3)C2(Cl)Cl)ccc1Cl (relative stereo) [F2522, trans-N-(3-(2-Acetyl-2-methylhydrazine-1-carbonyl)-4-chlorophenyl)-2,2-dichloro-3-(3,5-dichlorophenyl)cyclopropane-1-carboxamide] | A (80–100) | 50 to 100 | 50 to 100
4 | CN(NC(=O)c1cc(NC(=O)[C@H]2[C@H](c3cc(Cl)cc(Cl)c3)C2(Cl)Cl)ccc1Cl)C(=O)CC1CC1 (relative stereo) [F2524, trans-2,2-Dichloro-N-(4-chloro-3-(2-(2-cyclopropylacetyl)-2-methylhydrazine-1-carbonyl)phenyl)-3-(3,5-dichlorophenyl)cyclopropane-1-carboxamide] | A (80–100) | 50 to 100 | 50 to 100
5 | CN(NC(=O)c1cc(NC(=O)[C@H]2[C@H](c3cc(Cl)cc(Cl)c3)C2(Cl)Cl)ccc1Cl)C(=O)C1(C#N)CC1 (relative stereo) [F2525, trans-2,2-Dichloro-N-(4-chloro-3-(2-(1-cyanocyclopropane-1-carbonyl)-2-methylhydrazine-1-carbonyl)phenyl)-3-(3,5-dichlorophenyl)cyclopropane-1-carboxamide] | A (80–100) | 50 to 100 | 50 to 100
6 | CN(C)CC(=O)NNC(=O)c1cc(NC(=O)[C@H]2[C@H](c3cc(Cl)cc(Cl)c3)C2(Cl)Cl)ccc1Cl (relative stereo) [F2530, trans-2,2-Dichloro-N-(4-chloro-3-(2-(dimethylglycyl)hydrazine-1-carbonyl)phenyl)-3-(3,5-dichlorophenyl)cyclopropane-1-carboxamide] | A (80–100) | 50 to 100 | 50 to 100
7 | O=C(NNC(=O)c1cc(NC(=O)[C@H]2[C@H](c3cc(Cl)cc(Cl)c3)C2(Cl)Cl)ccc1Cl)c1ccccn1 (relative stereo) [F2531, trans-2,2-Dichloro-N-(4-chloro-3-(2-picolinoylhydrazine-1-carbonyl)phenyl)-3-(3,5-dichlorophenyl)cyclopropane-1-carboxamide] | A (80–100) | 50 to 100 | 50 to 100
8 | O=C(NCC1CC1)NNC(=O)c1cc(NC(=O)[C@H]2[C@H](c3cc(Cl)cc(Cl)c3)C2(Cl)Cl)ccc1Cl (relative stereo) [F2538, trans-2-(2-Chloro-5-(2,2-dichloro-3-(3,5-dichlorophenyl)cyclopropane-1-carboxamido)benzoyl)-N-(cyclopropylmethyl)hydrazine-1-carboxamide] | A (80–100) | 50 to 100 | 50 to 100
9 | O=C(NNC(=S)Nc1ccccc1)c1cc(NC(=O)[C@H]2[C@H](c3cc(Cl)cc(Cl)c3)C2(Cl)Cl)ccc1Cl (relative stereo) [F2541, trans-2,2-Dichloro-N-(4-chloro-3-(2-(phenylcarbamothioyl)hydrazine-1-carbonyl)phenyl)-3-(3,5-dichlorophenyl)cyclopropane-1-carboxamide] | A (80–100) | 50 to 100 | 50 to 100
10 | CCOC(=O)NNC(=O)c1cc(NC(=O)[C@H]2[C@H](c3cc(Cl)cc(Cl)c3)C2(Cl)Cl)ccc1Cl (relative stereo) [F2542, trans-ethyl 2-(2-chloro-5-(2,2-dichloro-3-(3,5-dichlorophenyl)cyclopropane-1-carboxamido)benzoyl)hydrazine-1-carboxylate] | B (More than 0 – Less than 80) | 50 to 100 | 50 to 100
11 | O=C(NNC(=O)c1cc(NC(=O)[C@H]2[C@H](c3cc(Cl)cc(Cl)c3)C2(Cl)Cl)ccc1Cl)OC(F)(F)F (relative stereo) [F2543, trans-Trifluoromethyl 2-(2-chloro-5-(2,2-dichloro-3-(3,5-dichlorophenyl)cyclopropane-1-carboxamido)benzoyl)hydrazine-1-carboxylate] | A (80–100) | 50 to 100 | 50 to 100
12 | O=C(NNCc1ccccc1)c1cc(NC(=O)[C@H]2[C@H](c3cc(Cl)cc(Cl)c3)C2(Cl)Cl)ccc1Cl (relative stereo) [F2545, trans-N-(3-(2-Benzylhydrazine-1-carbonyl)-4-chlorophenyl)-2,2-dichloro-3-(3,5-dichlorophenyl)cyclopropane-1-carboxamide] | A (80–100) | 50 to 100 | 50 to 100
13 | O=C(NNCc1ccc(F)cc1F)c1cc(NC(=O)[C@H]2[C@H](c3cc(Cl)cc(Cl)c3)C2(Cl)Cl)ccc1Cl (relative stereo) [F2547, trans-2,2-dichloro-N-(4-chloro-3-(2-(2,4-difluorobenzyl)hydrazine-1-carbonyl)phenyl)-3-(3,5-dichlorophenyl)cyclopropane-1-carboxamide] | A (80–100) | 50 to 100 | 50 to 100
14 | O=C(NNCC1CC1)c1cc(NC(=O)[C@H]2[C@H](c3cc(Cl)cc(Cl)c3)C2(Cl)Cl)ccc1Cl (relative stereo) [F2549, trans-2,2-Dichloro-N-(4-chloro-3-(2-(cyclopropylmethyl)hydrazine-1-carbonyl)phenyl)-3-(3,5-dichlorophenyl)cyclopropane-1-carboxamide] | A (80–100) | 50 to 100 | 50 to 100
15 | O=C(NNCCC(F)(F)F)c1cc(NC(=O)[C@H]2[C@H](c3cc(Cl)cc(Cl)c3)C2(Cl)Cl)ccc1Cl (relative stereo) [F2550, trans-2,2-Dichloro-N-(4-chloro-3-(2-(3,3,3-trifluoropropyl)hydrazine-1-carbonyl)phenyl)-3-(3,5-dichlorophenyl)cyclopropane-1-carboxamide] | B (More than 0 – Less than 80) | 0 to 50 | 50 to 100
16 | COCC(C)NNC(=O)c1cc(NC(=O)[C@H]2[C@H](c3cc(Cl)cc(Cl)c3)C2(Cl)Cl)ccc1Cl (relative stereo) [F2551, trans-2,2-Dichloro-N-(4-chloro-3-(2-(1-methoxypropan-2-yl)hydrazine-1-carbonyl)phenyl)-3-(3,5-dichlorophenyl)cyclopropane-1-carboxamide] | A (80–100) | 50 to 100 | 50 to 100
